Test results published in ChEMBL document CHEMBL1141252, “Antitrypanosomal activity of triterpenoids and sterols from the leaves of Strychnos spinosa and related compounds” (J Nat Prod, 2007).
Active and inactive are the calls of the source. No cut-off for these calls is given here.

How the values were obtained:
J774 = test: Cytotoxicity against mouse J774 cells by alamar blue assay; format: cell-based
[1] = Selectivity index, ratio of IC50 for mouse J774 cells to IC50 for Trypanosoma brucei brucei bloodstream trypomastigotes; format: functional
[2] = tested on: Trypanosoma brucei brucei; test: Antitrypanosomal activity against Trypanosoma brucei brucei bloodstream trypomastigotes by alamar blue assay; format: functional, organism-based
[3] = tested on: Trypanosoma brucei rhodesiense; test: Antitrypanosomal activity against Trypanosoma brucei rhodesiense bloodstream trypomastigotes; format: functional, organism-based
Trypanosoma cruzi [4] = test: Antitrypanosomal activity against South American Trypanosoma cruzi bloodstream trypomastigotes at 80.4 uM; format: functional
Trypanosoma cruzi [5] = test: Antitrypanosomal activity against South American Trypanosoma cruzi bloodstream trypomastigotes at 21 uM; format: functional
[6] = Cytotoxicity against human lung cancer cells; format: functional, cell-based; conditions: Cancer cell lines
[7] = Cytotoxicity against human leukemia cells; format: functional, cell-based; conditions: Leukemia cell
[8] = Cytotoxicity against mouse leukemic cells; format: functional, cell-based; conditions: Leukemic tumor cell line
[9] = Cytotoxicity against human colon cancer cells; format: functional, cell-based; conditions: Cancer cell lines

SMILES | IC50 (J774) [µM] | Ratio IC50 [1] | IC50 [2] [µM] | also measured
C[C@H]1[C@H](C)CC[C@]2(CO)CC[C@]3(C)C(=CC[C@@H]4[C@@]5(C)CC[C@H](O)C(C)(C)[C@@H]5CC[C@]43C)[C@H]12 [UVAOL] | 156 | 5.6 | 27.8 | –
C=C(C)[C@@H]1CC[C@]2(CO)CC[C@]3(C)[C@H](CC[C@@H]4[C@@]5(C)CC[C@H](O)C(C)(C)[C@@H]5CC[C@]43C)[C@@H]12 [BETULIN] | 67.1 | 7.4 | 8.9 | –
CC1(C)CC[C@]2(C)CC[C@]3(C)C(=CC[C@@H]4[C@@]5(C)CC[C@H](O)C(C)(C)[C@@H]5CC[C@]43C)[C@@H]2C1 [beta-AMYRIN] | > 234 | >1.8 | 127 | Activity [3]: inactive
C[C@H]1[C@H](C)CC[C@]2(C)CC[C@]3(C)C(=CC[C@@H]4[C@@]5(C)CC[C@H](O)C(C)(C)[C@@H]5CC[C@]43C)[C@H]12 | 128 | 1.1 | 114 | –
CC1(C)CC[C@]2(CO)CC[C@]3(C)C(=CC[C@@H]4[C@@]5(C)CC[C@H](O)C(C)(C)[C@@H]5CC[C@]43C)[C@@H]2C1 [ERYTHRODIOL] | 50.3 | 4.2 | 12 | –
CC1(C)CC[C@]2(C(=O)O)CC[C@]3(C)C(=CC[C@@H]4[C@@]5(C)CC[C@H](O)C(C)(C)[C@@H]5CC[C@]43C)[C@@H]2C1 [OLEANOLIC_ACID] | 130 | 20.6 | 6.4 | Activity (Trypanosoma cruzi [4]): 50%; Activity (Trypanosoma cruzi [5]): 50%
C[C@H]1[C@H](C)CC[C@]2(C(=O)O)CC[C@]3(C)C(=CC[C@@H]4[C@@]5(C)CC[C@H](O)C(C)(C)[C@@H]5CC[C@]43C)[C@H]12 [URSOLIC ACID] | 13.1 | 6 | 2.2 | Activity (Trypanosoma cruzi [4]): 50%; Activity (Trypanosoma cruzi [5]): 50%
CC[C@H](/C=C/[C@@H](C)[C@H]1CC[C@H]2[C@@H]3CC=C4C[C@@H](O)CC[C@]4(C)[C@H]3CC[C@]12C)C(C)C [STIGMASTEROL] | > 242 | >1.8 | 135 | –
C=C(C)[C@@H]1CC[C@]2(C(=O)O)CC[C@]3(C)[C@H](CC[C@@H]4[C@@]5(C)CC[C@H](O)C(C)(C)[C@@H]5CC[C@]43C)[C@@H]12 [BETULINIC ACID] | 44 | 1.3 | 32.6 | –
CC[C@H](CC[C@@H](C)[C@H]1CC[C@H]2[C@@H]3CC=C4C[C@@H](O)CC[C@]4(C)[C@H]3CC[C@]12C)C(C)C [BETA-SITOSTEROL] | > 241 | – | > 241 | –
C=CC(CC[C@@H](C)[C@H]1CC[C@H]2[C@@H]3CC=C4C[C@@H](O)CC[C@]4(C)[C@H]3CC[C@]12C)(OO)C(C)C (some centres undefined) | 16.4 | 5.2 | 3.2 | IC50 [6]: 0.7 µM; IC50 [7]: 0.7 µM; IC50 [8]: 0.7 µM; IC50 [9]: 0.7 µM
COc1cc2c(c(OC)c1OC)-c1ccc(OC)c(=O)cc1[C@@H](NC(C)=O)CC2 [COLCHICINE] | 0.21 | – | – | –
Cc1ccc(C(=O)Nc2ccc(S(=O)(=O)O)c3cc(S(=O)(=O)O)cc(S(=O)(=O)O)c23)cc1NC(=O)c1cccc(NC(=O)Nc2cccc(C(=O)Nc3cc(C(=O)Nc4ccc(S(=O)(=O)O)c5cc(S(=O)(=O)O)cc(S(=O)(=O)O)c45)ccc3C)c2)c1 [SURAMIN] | – | – | 0.041 | –
CC[C@H](CC[C@@H](C)[C@H]1CC[C@H]2[C@@H]3CC[C@H]4C[C@@H](O)CC[C@]4(C)[C@H]3CC[C@]12C)C(C)C [STIGMASTANOL] | > 240 | – | > 240 | –
C=CC(O)(CC[C@@H](C)[C@H]1CC[C@H]2[C@@H]3CC=C4C[C@@H](O)CC[C@]4(C)[C@H]3CC[C@]12C)C(C)C (some centres undefined) [SARINGOSTEROL] | > 233 | >30.3 | 7.8 | –
C=C(C)[C@@H](CC)CC[C@@H](C)[C@H]1CC[C@H]2[C@@H]3CC=C4C[C@@H](O)CC[C@]4(C)[C@H]3CC[C@]12C [CLEROSTEROL] | > 242 | >1.9 | 130 | –
C=C(C)[C@@H]1CC[C@]2(C)CC[C@]3(C)[C@H](CC[C@@H]4[C@@]5(C)CC[C@H](O)C(C)(C)[C@@H]5CC[C@]43C)[C@@H]12 [LUPEOL] | > 234 | >5.2 | 45.3 | –
